Assay results: US20250295627A1 (Leibniz-Institut Fuer Neurobiologie, priority 2022, published 2025)

Columns and labels:
[1] = tested on: HEK293T cells; assay: Heterologous co-immunoprecipitation from HEK293T cells; type: cell-based; conditions: 20 nM staurosporine, 3 h
[2] = tested on: GluR1; type: cell-based, rat
[3] = tested on: pCREB; assay: Jacob-induced CREB shutoff in hippocampal primary neurons expressing phosphodeficient Jacob; type: cell-based, rat; conditions: 2 μM OA, 20 min, neurons expressing phosphodeficient Jacob in the nucleus
Experimental: Hippocampal neuronal cultures were transfected with plasmid DNA using Lipofectamine2000 (Thermo Fisher Scientific) following the manufacturer's instructions. For LMO4 knockdown cells were expressing shRNA for 5 days; for Jacob knockdown 4 days. […]. The target sequences for LMO4 and NLS-Jacob knockdown (Spilker et al., 2016) as well as scrambled controls are indicated in key resources table. For Aβ-induced CREB shutoff experiments Aβ oligomers (Anaspec) were prepared as described previously (see previous section, (Grochowska et al., 2017)). Transfected neurons were treated with 500 nM Aβ1-42 or Aβ3 (pE)-42. Nitarsone was diluted in distilled water.

[4] = Solubility in water; type: physicochemical
[5] = target: T1, GST-LMO4 (Homo sapiens, UniProt P61968); assay: Isothermal titration calorimetry (ITC); conditions: binding to LMO4, 25 mM Tris buffer pH 7.4, 50 mM NaCl
T1 construct: made in house; host or cells: E. coli BL21 (DE3)
T1 sequence (P61968 1-165): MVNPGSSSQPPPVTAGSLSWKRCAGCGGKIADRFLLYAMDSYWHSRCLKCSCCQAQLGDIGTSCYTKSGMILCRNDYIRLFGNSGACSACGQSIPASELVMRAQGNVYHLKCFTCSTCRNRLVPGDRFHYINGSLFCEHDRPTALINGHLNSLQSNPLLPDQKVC

What does the source list for `CN[C@@H]1C[C@H]2O[C@@](C)([C@@H]1OC)n1c3ccccc3c3c4c(c5c6ccccc6n2c5c31)C(=O)NC4` [staurosporine]?
Jacob phosphorylation level (S180) [1]: decreases Jacob phosphorylation level (S180); association of Jacob with CREB [1]: decreases the association of Jacob with CREB; association of Jacob with LMO4-tagRFP [1]: increases its association with LMO4-tagRFP

With `NC1=N[C@H](O)[C@H]2[C@H]3O[C@]4(O)O[C@@H]([C@@H](O)[C@@]2(N1)[C@@H]4O)[C@]3(O)CO` [TTX, tetrodotoxin] as the molecule, how does the GluR1 surface expression [2] read?
Its GluR1 surface expression is “induced upregulation of GluR1 surface expression”.

For `C=C1[C@@H](O)[C@@H]2O[C@]3(CC[C@H](/C=C/[C@@H](C)[C@@H]4CC(C)=C[C@@]5(O[C@H](C[C@@](C)(O)C(=O)O)CC[C@H]5O)O4)O3)CC[C@H]2O[C@@H]1[C@@H](O)C[C@H](C)[C@H]1O[C@@]2(CCCCO2)CC[C@H]1C` [OA, okadaic acid], which “Jacob-induced CREB shutoff” value [3] is on record?
The value was “prevented Jacob-induced CREB shutoff”.

For `CC(NCCO)c1ccc([N+](=O)[O-])cc1` (stereo not shown) [NPEAE, 2-{[1-(4-nitrophenyl)ethyl]amino}ethan-1-ol], which solubility in water [4] is on record?
Its solubility in water is “soluble in water”.

B1: Jacob: synapto-nuclear protein messenger; recombinant protein titrated against LMO4 in ITC (protein, listed as Homo sapiens)
chain: MGAAASRRRALRSEAMSSVAAKVRAARAFGEYLSQSHPENRNGADHLLADAYSGHDGSPEMQPAPQNKRRLSLVSNGCYEGSLSEEPSIRKPAGEGPQPRVYTISGEPALLPSPEAEAIELAVVKGRRQRHPHHHSQPLRASPGGSREDVSRPCQSWAGSRQGSKECPGCAQLAPGPTPRAFGLDQPPLPETSGRRKKLERMYSVDRVSDDIPIRTWFPKENLFSFQTATTTMQAISVFRGYAERKRRKRENDSASVIQRNFRKHLRMVGSRRVKAQTFAERRERSFSRSWSDPTPMKADTSHDSRDSSDLQSSHCTLDEAFEDLDWDTEKGLEAVACDTEGFVPPKVMLISSKVPKAEYIPTIIRRDDPSIIPILYDHEHATFEDILEEIERKLNVYHKGAKIWKMLIFCQGGPGHLYLLKNKVATFAKVEKEEDMIHFWKRLSRLMSKVNPEPNVIHIMGCYILGNPNGEKLFQNLRTLMTPYRVTFESPLELSAQGKQMIETYFDFRLYRLWKSRQHSKLLDFDDVL
For B1, which Kd [5] is on record?
The Kd was 0.37 µM.
